Consider 1 compound from BindingDB's records for doi:10.1016/j.bmcl.2013.08.111 (University of Michigan, 2013).

The assay concerns the target Catenin beta-1/Transcription factor 7-like 2 (Homo sapiens, UniProt P35222+Q9NQB0). The experiment in a line: Inhibition of human TCF4/ flag epitope-tagged beta-catenin (unknown origin) interaction transfected in human HCT116 cells after 24 hrs by beta-galactosidase/luciferase reporter gene assay.

Structures are written as SMILES.

Sequence of Catenin beta-1/Transcription factor 7-like 2 (P35222 whole entry): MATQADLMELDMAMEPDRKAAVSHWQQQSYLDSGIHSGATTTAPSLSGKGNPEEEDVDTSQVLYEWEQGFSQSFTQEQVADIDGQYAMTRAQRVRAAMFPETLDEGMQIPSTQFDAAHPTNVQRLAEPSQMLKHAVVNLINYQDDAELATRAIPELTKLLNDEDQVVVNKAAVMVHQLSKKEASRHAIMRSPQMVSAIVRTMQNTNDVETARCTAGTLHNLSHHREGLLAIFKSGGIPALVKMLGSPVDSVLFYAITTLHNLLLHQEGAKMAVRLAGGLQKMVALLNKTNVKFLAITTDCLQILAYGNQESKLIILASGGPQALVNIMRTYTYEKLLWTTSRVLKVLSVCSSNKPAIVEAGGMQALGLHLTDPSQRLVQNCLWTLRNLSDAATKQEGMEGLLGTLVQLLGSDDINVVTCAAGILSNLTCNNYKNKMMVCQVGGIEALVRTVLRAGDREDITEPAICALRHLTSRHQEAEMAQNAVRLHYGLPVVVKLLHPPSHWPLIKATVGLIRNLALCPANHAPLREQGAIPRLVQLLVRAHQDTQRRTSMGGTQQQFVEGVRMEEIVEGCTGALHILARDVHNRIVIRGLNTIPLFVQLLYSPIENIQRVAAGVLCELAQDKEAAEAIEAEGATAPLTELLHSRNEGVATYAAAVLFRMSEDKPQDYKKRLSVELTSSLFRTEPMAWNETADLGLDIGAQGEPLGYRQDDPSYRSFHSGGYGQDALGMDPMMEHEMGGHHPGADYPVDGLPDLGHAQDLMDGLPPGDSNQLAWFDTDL
Sequence of Catenin beta-1/Transcription factor 7-like 2 (Q9NQB0 whole entry): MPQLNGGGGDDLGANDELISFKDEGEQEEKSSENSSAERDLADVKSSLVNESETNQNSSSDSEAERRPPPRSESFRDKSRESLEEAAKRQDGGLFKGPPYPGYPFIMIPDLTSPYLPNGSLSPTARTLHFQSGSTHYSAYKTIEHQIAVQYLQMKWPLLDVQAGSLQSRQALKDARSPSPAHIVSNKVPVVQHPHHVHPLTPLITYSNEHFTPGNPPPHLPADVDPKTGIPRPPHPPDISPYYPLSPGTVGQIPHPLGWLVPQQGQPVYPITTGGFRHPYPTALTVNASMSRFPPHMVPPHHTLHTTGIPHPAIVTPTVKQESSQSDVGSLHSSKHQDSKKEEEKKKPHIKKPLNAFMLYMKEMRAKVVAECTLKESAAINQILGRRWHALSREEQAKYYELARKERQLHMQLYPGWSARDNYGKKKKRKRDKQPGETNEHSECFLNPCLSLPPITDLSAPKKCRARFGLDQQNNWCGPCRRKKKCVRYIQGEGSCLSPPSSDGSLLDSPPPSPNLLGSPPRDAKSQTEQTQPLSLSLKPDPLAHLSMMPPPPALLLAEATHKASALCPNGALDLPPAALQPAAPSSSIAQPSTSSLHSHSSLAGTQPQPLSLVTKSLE

Regarding `Cn1nc(-c2ccc(Cl)cc2)nc2c(=O)n(C)c(=O)nc1-2` [3-(4-Chloro-phenyl)-1,6-dimethyl-1H-pyrimido[5,4-e][1,2,4]triazine-5,7-dione], it took 300 nM to reach half-maximal inhibition (IC50).
